Test results taken from patent US8987220B2, “Production of reprogrammed cells with restored potential” (Nupotential, Inc., priority 2005, dated 2015).
Entries after “also recorded” stand apart in the source; their conditions may differ.

Experiments:
[1] = system: bovine serial nuclear transfer donor somatic cells; experiment: Relative methylated cytosine by reverse-phase HPLC after ATRA treatment; format: cell-based; details: 10-50 nM ATRA, cultured until confluent
Method: Bovine serial nuclear transfer donor somatic cells (a cell line that has never produced a successful live animal and which is characterized by low blastocyst development rates (<10%, P<0.001) and low pregnancy initiation rates (<1%, P<0.05)) were cultured in T-75 flasks until confluent in growth media (CON), or growth media treated with DMSO, or ATRA (DMSO vehicle); 10 nM, 50 nM, and 100 nM ATRA concentrations were used. Following […] treatment, the cells were collected and DNA from the cells was isolated. The DNA was then completely digested into single nucleotides for reverse-phase HPLC. Reverse-phase HPLC was performed as described by Cezar et al. to measure the relative levels of methylated cytosine residues.

GNMT = GNMT gene expression by real-time RT-PCR (GNMT/GAPD ratio); format: cell-based, bovine
Oct4, Sox2 and nanog = experiment: RT-PCR for stem cell/pluripotency markers after ATRA; format: cell-based, bovine; details: after ATRA treatment, data not shown
Method: To determine whether differentiation potential was restored, bovine somatic cells were cultured in T-75 flasks until confluent in CON, DMSO, or ATRA media (same RA as in Example 1).

primary rat hepatocytes = experiment: ATRA and adipogenic induction cocktail on primary hepatocytes; format: cell-based
Method: Primary rat hepatocytes were grown in media treated with 50-200 nM ATRA. Following treatment, cells were cultured under the same comparative conditions as described above for the bovine somatic cells, except an adipogenic induction cocktail (as described in EXAMPLE 2) was added to the T-75 flasks.

3T3 L1 cells = experiment: ATRA followed by osteogenic induction media; format: cell-based, murine
Method: 3T3 L1 cells were grown in media treated with 50-200 nM ATRA. Following ATRA treatment, cells were transferred to 6-well plates and exposed to osteogenic induction media containing DMEM, FBS, ascorbic acid 2-phosphate, dexamethasone, beta glycerophosphate, and vitamin D for 21 days.

bovine somatic cells = experiment: ATRA followed by adipogenic induction cocktail
[2] = 50-200 nM ATRA then osteogenic induction 21 days

CC1=C(/C=C/C(C)=C/C=C/C(C)=C/C(=O)O)C(C)(C)CCC1 [ATRA, all-trans retinoic acid]
reduction in methylated cytosine compared to CON [1]: 8-10%
GNMT gene expression (ratio of GNMT to GAPD) (GNMT; ATRA-treated growth media, real-time RT-PCR): upregulation
response of GNMT transcription to ATRA (GNMT; prior experiments): dose response
expression of Oct4, Sox2 and nanog (Oct4, Sox2 and nanog): upregulation and strong expression
cell proliferation (confluency) (primary rat hepatocytes; 50-200 nM ATRA then adipogenic induction media, day 4): proliferated significantly
cell morphology (primary rat hepatocytes; 50-200 nM ATRA, pronounced within 48 hours of induction media): Morphological changes
alizarin staining for calcium phosphate mineralization (3T3 L1 cells; [2]): positive staining; also recorded: calcium phosphate mineralization
alkaline phosphatase staining for osteoblast-like cells (3T3 L1 cells; [2]): positive staining
osteocalcin and cbfa1 expression (osteoblast-specific markers) (3T3 L1 cells; RT-PCR after ATRA and osteogenic induction): induction
oil red-O staining (lipid) (bovine somatic cells; ATRA then adipogenic induction 11-12 days): positive
PPARγ gene expression (adipocyte differentiation marker) (bovine somatic cells; PCR after induction, data not shown): induction
cell morphology during exposure to ATRA (bovine somatic cells; structures similar to embryoid bodies): significant morphological changes
